Experimental data: US9416144B2, “Benzoxazine oxazolidinone compound, preparation method and application thereof” (priority 2012, dated 2016)
In brackets after ≈: the same amount, converted by molar mass.

What was measured:
[1] = test system: S.a. ATCC 29213 (standard strain of Staphylococcus aureus); test: In vitro antibacterial activity on linezolid-resistant strains, MIC in MHB broth, 96-well plate; assay type: cell-based; details: ATCC29213, 35° C. 20 hrs
Method: (§1) The stock solution of the subject drugs in DMSO was 10 mg/mL. MHA (agar) and MHB (broth) were both prepared according to the manufacturer's requirements.
(§2) Double dilution of drugs: under aseptic operation, 12.8 μL of liquid drug was added into the first well of a 96-well plate, and then added 27.2 μL DMSO and mixed. The 2nd to 12nd wells were all added 20 μL DMSO. 20 μL was taken from the first well to the second well and mixed up. 20 μL was taken from the second well to the third well, which was repeated till the 11st well, from which was taken 20 μL and discarded. The 12nd well only had 20 μL of DMSO as the growth control. Then 180 μL of sterile water was added to each well and mixed up. The drug used as control was prepared by the same method.
(§3) The solutions with different concentrations of antibacterial drugs after the double dilution and DMSO were added into a sterile 96-well plate separately, 10 μL per well, ready for use.
(§4) Single colonies were picked from the MHA plates into 5 ml of sterile saline and mixed up.
(§5) Light transmittance was adjusted to 80% with a spectrophotometer. After being diluted by 1:200 with MHB, 90 μL of such bacteria liquid was added into each of the wells which already had 10 μL of the drug liquid, mixed up, and incubated in a regular biochemical incubator at 35° C. for 20 hrs before the results were read out. At this time, the drug concentration in the 1st to 12nd wells was 32, 16, 8, 4, 2, 1, 0.5, 0.25, 0.125, 0.0625, 0.03125, 0 μg/mL, respectively.
(§6) Two parallel groups were set up for the same diluted concentration of a drug.
(§7) 4) Results Reading and Judgment: Refer to the Standard Recommended by the CLSI, 2010 Edition.
(§8) The positive control group was LZ (linezolid, brand name Zyvox, approved by the FDA in 2000 to be firstly sold in the United States, which is the first and also the only one of oxazolidinone antibacterial drugs allowed to enter clinical application).

[2] = test system: LRSE, linezolid-resistant strain of Staphylococcus epidermidis (1 strain); test: as above; assay type: cell-based; details: LRSE (1 strain)
Method: as §1, §2, §3, §4, §5, §6, §7, §8

[3] = test system: LREFA, linezolid-resistant strain of Enterococcus faecium (3 strains); test: as above; assay type: cell-based; details: LREFA (3 strains)
Method: as §1, §2, §3, §4, §5, §6, §7, §8

[4] = test system: LRSA, linezolid-resistant strain of Staphylococcus aureus (3 strains); test: as above; assay type: cell-based; details: LRSA (3 strains)
Method: as §1, §2, §3, §4, §5, §6, §7, §8

[5] = test system: LREFL, linezolid-resistant strain of Enterococcus faecalis (3 strains); test: as above; assay type: cell-based; details: LREFL (3 strains)
Method: as §1, §2, §3, §4, §5, §6, §7, §8

[6] = test system: Streptococcus pneumoniae resistant strains (4 strains); test: In vitro antibacterial activity, MIC by agar double dilution method; assay type: cell-based; details: clinical isolates
Description: (§9) Experimental method: The agar double dilution method (Antimicrob. Agents and Chemother, 40, 1996, 720-726) was used to determine the minimum inhibitory concentration (MIC) of the series of compounds of the invention and the positive control drug linezolid for the test strains. The multipoint inoculation system (Denley A400) was employed to inoculate the bacteria on the agar plate surface with different concentrations of drugs; inoculation amount on each point was about 10^6 CFU/mL. The plates were incubated at 35° C. for 16 hrs before the results were observed. The lowest drug concentration contained in the Petri dish without bacterial growth was used as the minimum inhibitory concentration (MIC value) of the drug fir that strain.
(§10) Test strains: All the test strains were clinically isolated pathogens which were collected from the Nanjing region, and they were re-identified by routine methods before use. 31 strains of the clinically isolated pathogens were chosen, including 6 strains of Enterococcus, 5 Staphylococcus aureus sensitive strains; 5 Staphylococcus epidermidis sensitive strains; 6 Staphylococcus aureus resistant strains; 5 Staphylococcus epidermidis resistant strains; and 4 Streptococcus pneumoniae resistant strains.
(§11) Compounds to be tested were first added 2 ml of DMSO to help them fully dissolved, then added sterile double distilled water to the desired concentration; to all the Petri dish with added drug liquid were added 20 mL MIT medium which was heat-melted to be liquid-like, to make the final drug concentration in the Petri dish to be 64, 32, 16, 8, 4, 2, 1, 0.5, 0.25, 0.125, 0.0625, and 0.031 μg/mL.
as §8

[7] = test system: Staphylococcus aureus sensitive strains (5 strains); test: as above; assay type: cell-based; details: clinical isolates
Description: as §9, §10, §11, §8

[8] = test system: Staphylococcus epidermidis resistant strains (5 strains); test: as above; assay type: cell-based; details: clinical isolates
Description: as §9, §10, §11, §8

[9] = test system: Staphylococcus epidermidis sensitive strains (5 strains); test: as above; assay type: cell-based; details: clinical isolates
Description: as §9, §10, §11, §8

[10] = test system: Staphylococcus aureus resistant strains (6 strains); test: as above; assay type: cell-based; details: clinical isolates
Description: as §9, §10, §11, §8

Enterococcus (6 strains) = test: as above; assay type: cell-based; details: clinical isolates, 35° C. 16 hrs
Description: as §9, §10, §11, §8

| Compound | melting point | MIC [1] | MIC [2] | MIC [3] | MIC [4] | MIC [5] | MIC [6] | MIC [7] | MIC [8] | MIC [9] | MIC [10] | MIC (Enterococcus (6 strains)) |
| --- | --- | --- | --- | --- | --- | --- | --- | --- | --- | --- | --- | --- |
| C[C@@H](O)C(=O)c1ccc(-c2ccc3c(c2)OC[C@H]2[C@H](CO)OC(=O)N32)cn1 [Compound 1, (3R,3aS)-3-(hydroxylmethyl)-7-(6-((R)-2-hydroxylpropionyl)pyridin-3-yl)-3a,4-dihydrobenzo[b]oxazolo[3,4-d][1,4]oxazin-1(3H)-one] | 164 to 166 °C | 0.5 µg/mL (≈ 1.35 µM) | 4 µg/mL (≈ 10.8 µM) | 4 to 8 µg/mL (≈ 10.8 to 21.6 µM) | 8 µg/mL (≈ 21.6 µM) | 8 µg/mL (≈ 21.6 µM) | 0.25 to 0.5 µg/mL (≈ 0.675 to 1.35 µM) | 0.25 µg/mL (≈ 0.675 µM) | 0.125 to 0.5 µg/mL (≈ 0.338 to 1.35 µM) | 0.125 to 0.5 µg/mL (≈ 0.338 to 1.35 µM) | 0.125 to 0.5 µg/mL (≈ 0.338 to 1.35 µM) | 1 µg/mL (≈ 2.7 µM) |
| O=C1O[C@@H](CO)[C@@H]2COc3cc(-c4ccc(Cn5cncn5)nc4)ccc3N12 [Compound 2, (3R,3aS)-7-(6-((1H-1,2,4-triazol-1-yl)methyl)pyridin-3-yl)-3-(hydroxylmethyl)-3a,4-dihydrobenzo[b]oxazolo[3,4-d][1,4]oxazin-1(3H)-one] | – | 0.5 µg/mL (≈ 1.32 µM) | 4 µg/mL (≈ 10.5 µM) | 4 to 8 µg/mL (≈ 10.5 to 21.1 µM) | 8 µg/mL (≈ 21.1 µM) | 4 to 8 µg/mL (≈ 10.5 to 21.1 µM) | 0.5 to 2 µg/mL (≈ 1.32 to 5.27 µM) | 0.5 to 1 µg/mL (≈ 1.32 to 2.64 µM) | 0.5 to 1 µg/mL (≈ 1.32 to 2.64 µM) | 0.5 to 1 µg/mL (≈ 1.32 to 2.64 µM) | 0.5 to 1 µg/mL (≈ 1.32 to 2.64 µM) | 1 to 2 µg/mL (≈ 2.64 to 5.27 µM) |
| N#Cc1ccc(-c2ccc3c(c2)OC[C@H]2[C@H](CO)OC(=O)N32)cn1 [Compound 3, 5-((3R,3aS)-3-(hydroxylmethyl)-1-oxo-1,3,3a,4-tetrahydrobenzo[b]oxazolo[3,4-d][1,4]oxazin-7-yl)picolinonitrile] | – | 0.25 µg/mL (≈ 0.773 µM) | 4 µg/mL (≈ 12.4 µM) | 2 to 4 µg/mL (≈ 6.19 to 12.4 µM) | 4 to 8 µg/mL (≈ 12.4 to 24.7 µM) | 4 µg/mL (≈ 12.4 µM) | 0.25 to 0.5 µg/mL (≈ 0.773 to 1.55 µM) | 0.25 to 0.5 µg/mL (≈ 0.773 to 1.55 µM) | 0.125 to 0.25 µg/mL (≈ 0.387 to 0.773 µM) | 0.25 µg/mL (≈ 0.773 µM) | 0.125 to 0.25 µg/mL (≈ 0.387 to 0.773 µM) | 1 µg/mL (≈ 3.09 µM) |
| O=C1OCCN1c1ccc(-c2ccc3c(c2)OC[C@H]2[C@H](CO)OC(=O)N32)cn1 [Compound 5, (3R,3aS)-3-(hydroxylmethyl)-7-(6-(2-oxazolidino-3-yl)pyridin-3-yl)-3a,4-dihydrobenzo[b]oxazolo[3,4-d][1,4]oxazin-1(3H)-one] | – | 0.5 µg/mL (≈ 1.3 µM) | 2 µg/mL (≈ 5.22 µM) | 4 to 8 µg/mL (≈ 10.4 to 20.9 µM) | 4 µg/mL (≈ 10.4 µM) | 4 to 8 µg/mL (≈ 10.4 to 20.9 µM) | 0.5 to 1 µg/mL (≈ 1.3 to 2.61 µM) | 0.5 to 1 µg/mL (≈ 1.3 to 2.61 µM) | 0.5 to 1 µg/mL (≈ 1.3 to 2.61 µM) | 0.5 to 1 µg/mL (≈ 1.3 to 2.61 µM) | 0.5 to 1 µg/mL (≈ 1.3 to 2.61 µM) | 1 µg/mL (≈ 2.61 µM) |
